This passage reports IC50 results from patent US11168102B1, “Bicyclic heteroaryl compounds and uses thereof” (Revolution Medicines, Inc., priority 2019, dated 2021).

SMILES strings stand for the structures.

In the first assay the test system is cellular pERK in PC-9 cells (EGFR Ex19Del). The assay can be described thus: Potency assay: pERK (AlphaLISA SureFire Ultra p-ERK1/2) in PC-9 cells. The assay is classed as cell-based. The note with it: Homo sapiens, PC-9, 1 h, PC-9 cells (EGFR Ex19Del), 1 hour incubation, AlphaLISA SureFire Ultra p-ERK1/2; read-out: SOS1 pERK IC50.
As usually defined, the IC50 is the concentration at which inhibition is half-maximal. In the case of `C[C@@H](Nc1ncnc2c1cc(C(=O)N1CC(N3CC(C)(O)C3)C1)c(=O)n2C)c1cccc(C(F)F)c1F` [Example 26-45], the IC50 came to 521 nM. In the case of `C[C@@H](Nc1ncnc2c1cc(C(=O)N1CCOC3(CCOC3)C1)c(=O)n2C)c1cccc(C(F)F)c1F` (stereo partly drawn) [Example 26-46], the IC50 was determined as 322 nM. Still for that read-out and setting: in the case of `C[C@@H](Nc1ncnc2c1cc(C(=O)N1CCOCC13CCOC3)c(=O)n2C)c1cccc(C(F)F)c1F` (stereo partly drawn) [Example 26-47] it was 585 nM. On the same count and under the same terms, in the case of `COCCN1CCN(C(=O)c2cc3c(N[C@H](C)c4cccc(C(F)F)c4F)ncnc3n(C)c2=O)CC1` [Example 26-48] it was 220 nM; in that of `C[C@@H](Nc1ncnc2c1cc(C(=O)N1CCC(O)(C(F)(F)F)CC1)c(=O)n2C)c1cccc(C(F)F)c1F` [Example 26-50], 880 nM; in that of `CC(=O)N1CC2(CCN2C(=O)c2cc3c(N[C@H](C)c4cccc(C(F)F)c4F)ncnc3n(C)c2=O)C1` [Example 26-51], 445 nM. The same measure, in the same setting: next, `C[C@@H](Nc1ncnc2c1cc(C(=O)N1CCC13CS(=O)(=O)C3)c(=O)n2C)c1cccc(C(F)F)c1F` [Example 26-52]: 152 nM.

Take `Cc1nc(N[C@H](C)c2cccc(C(F)F)c2F)c2cc(CN3CCOCC3)c(=O)n(C)c2n1` [Example 27, 4-{[(1R)-1-[3-(difluoromethyl)-2-fluorophenyl]ethyl]amino}-2,8-dimethyl-6-[(morpholin-4-yl)meth-yl]-7H,8H-pyrido[2,3-d]pyrimidin-7-one]: the IC50 was found to be 852 nM.

Turning to `C[C@@H](Nc1ncnc2c1cc(C1(O)CCS(=O)(=O)CC1)c(=O)n2C)c1cccc(C(F)F)c1F` [Example 28, 4-(4-{[(1R)-1-[3-(difluoromethyl)-2-fluorophenyl]-ethyl]amino}-8-methyl-7-oxo-7H,8H-pyrido[2,3-d]pyrimidin-6-yl)-4-hydroxy-1λ^6-thiane-1,1-dione], the IC50 was 93.7 nM. Same read-out and setting: in the case of `C[C@@H](Nc1ncnc2c1cc(C1(O)CC3(C1)CS(=O)(=O)C3)c(=O)n2C)c1cccc(C(F)F)c1F` [Example 28-4] it was 83.7 nM; in that of `C[C@@H](Nc1ncnc2c1cc(C1(O)CC3CCC(C1)S3(=O)=O)c(=O)n2C)c1cccc(C(F)F)c1F` (stereo partly drawn) [Example 28-5], 157 nM. Regarding `C[C@@H](Nc1ncnc2c1cc(C1(O)CS(=O)(=O)C1)c(=O)n2C)c1cccc(C(F)F)c1F` [Example 28-7], the IC50 turned out to be 322 nM. Regarding `CC(=O)N1CCC(O)(c2cc3c(N[C@H](C)c4cccc(C(F)F)c4F)ncnc3n(C)c2=O)CC1` [Example 28-8], the IC50 was determined as 32.6 nM. Regarding `C[C@@H](Nc1ncnc2c1cc(C1(O)CCN(C(=O)OC(C)(C)C)C1)c(=O)n2C)c1cccc(C(F)F)c1F` (stereo partly drawn) [Example 28-9], the IC50 worked out at 369 nM. Same read-out and setting: next, `C[C@@H](Nc1ncnc2c1cc(C1(F)CCS(=O)(=O)CC1)c(=O)n2C)c1cccc(C(F)F)c1F` [Example 29, 4-(4-{[(1R)-1-[3-(difluoromethyl)-2-fluorophenyl]ethyl]amino}-8-methyl-7-oxo-7H,8H-pyrido[2,3-d]-pyrimidin-6-yl)-4-fluoro-1λ^6-thiane-1,1-dione]: 34.6 nM; `C[C@@H](Nc1ncnc2c1cc(C1(F)CN(C)C1)c(=O)n2C)c1cccc(C(F)F)c1F` [Example 29-1]: 122 nM; `CC(=O)N1CC(F)(c2cc3c(N[C@H](C)c4cccc(C(F)F)c4F)ncnc3n(C)c2=O)C1` [Example 29-2]: 91.5 nM. As to `C[C@@H](Nc1ncnc2c1cc(C1(F)CN(S(C)(=O)=O)C1)c(=O)n2C)c1cccc(C(F)F)c1F` [Example 29-6], the IC50 worked out at 470 nM. On the same count and under the same terms, next, `C[C@@H](Nc1ncnc2c1cc(C1(F)CCC3(CC1)CS(=O)(=O)C3)c(=O)n2C)c1cccc(C(F)F)c1F` [Example 29-7]: 81.1 nM. Turning to `C[C@@H](Nc1ncnc2c1cc(C1(F)CC3(C1)CS(=O)(=O)C3)c(=O)n2C)c1cccc(C(F)F)c1F` [Example 29-8], the half-inhibitory concentration (IC50) was determined as 53.4 nM.

`C[C@@H](Nc1ncnc2c1cc(C1(F)CCP(C)(=O)CC1)c(=O)n2C)c1cccc(C(F)F)c1F` (stereo partly drawn) [Example 29-9]: the IC50 is 163 nM. For `C[C@@H](Nc1ncnc2c1cc(C1(F)CCS(=O)(=O)C1)c(=O)n2C)c1cccc(C(F)F)c1F` (stereo partly drawn) [Example 29-11], the half-inhibitory concentration (IC50) turned out to be 44.3 nM. Regarding `C[C@@H](Nc1ncnc2c1cc(C1(F)CCN(C3COC3)CC1)c(=O)n2C)c1cccc(C(F)F)c1F` [Example 29-13], the IC50 is 196 nM. The same measure, in the same setting: in the case of `C[C@@H](Nc1ncnc2c1cc(C1(F)CCS(=N)(=O)CC1)c(=O)n2C)c1cccc(C(F)F)c1F` (stereo partly drawn) [Example 29-14] it was 35.5 nM. For `C[C@@H](Nc1ncnc2c1cc(Sc1ccccc1)c(=O)n2C)c1cccc(C(F)F)c1F` [Example 30, 4-{[(1R)-1-[3-(difluoromethyl)-2-fluorophenyl]ethyl]amino}-8-methyl-6-(phenylsulfanyl)-7H,8H-pyrido[2,3-d]pyrimidin-7-one], the half-maximal inhibitory concentration (IC50) is 2760 nM. As to `C[C@@H](Nc1ncnc2c1cc(C1(N)CCOCC1)c(=O)n2C)c1cccc(C(F)F)c1F` [Example 31, 6-(4-aminooxan-4-yl)-4-{[(1R)-1-[3-(difluoromethyl)-2-fluorophenyl]ethyl]amino}-8-methyl-7H,8H-pyrido-[2,3-d]pyrimidin-7-one], the IC50 is 14.5 nM. Regarding `C[C@@H](Nc1ncnc2c1cc(C1(N)CCS(=O)(=O)CC1)c(=O)n2C)c1cccc(C(F)F)c1F` [Example 31-1], the IC50 came to 45.6 nM. On the same count and under the same terms, in the case of `CC(=O)NC1(c2cc3c(N[C@H](C)c4cccc(C(F)F)c4F)ncnc3n(C)c2=O)CCS(=O)(=O)CC1` [Example 31-3] it was 777 nM. As for `C[C@@H](Nc1ncnc2c1cc(C1(N)CC3(C1)CS(=O)(=O)C3)c(=O)n2C)c1cccc(C(F)F)c1F` [Example 31-4], the IC50 is 180 nM. In the case of `C[C@@H](Nc1ncnc2c1cc(C1(N)CS(=O)(=O)C1)c(=O)n2C)c1cccc(C(F)F)c1F` [Example 31-6], the IC50 turned out to be 191 nM.

Take `C[C@@H](Nc1ncnc2c1cc(C1(N)CCS(=O)(=O)C1)c(=O)n2C)c1cccc(C(F)F)c1F` (stereo partly drawn) [Example 31-7]: the IC50 was 45.6 nM. On to `COC1(c2cc3c(N[C@H](C)c4cccc(C(F)F)c4F)ncnc3n(C)c2=O)CCS(=O)(=O)CC1` [Example 32, 4-(4-{[(1R)-1-[3-(difluoro-methyl)-2-fluorophenyl]ethyl]amino}-8-methyl-7-oxo-7H,8H-pyrido[2,3-d]pyrimidin-6-yl)-4-methoxy-λ1^6-thiane-1,1-dione], for which the IC50 was found to be 58.4 nM. `COC1(c2cc3c(N[C@H](C)c4cccc(C(F)F)c4F)ncnc3n(C)c2=O)CCN(C(C)=O)CC1` [Example 32-1]: the IC50 stood at 124 nM. Same read-out and setting: next, `CO[C@]1(c2cc3c(N[C@H](C)c4cccc(C(F)F)c4F)ncnc3n(C)c2=O)CCN(C(C)=O)C1` [Example 32-2]: 10 nM. Still for that read-out and setting: in the case of `COC1(c2cc3c(N[C@H](C)c4cccc(C(F)F)c4F)ncnc3n(C)c2=O)CCC2(CC1)CS(=O)(=O)C2` [Example 32-4] it was 9.29 nM.

`COC1(c2cc3c(N[C@H](C)c4cccc(C(F)F)c4F)ncnc3n(C)c2=O)CC2(C1)CS(=O)(=O)C2` [Example 32-5]: the IC50 worked out at 35.7 nM. Consider `COC1(c2cc3c(N[C@H](C)c4cccc(C(F)F)c4F)ncnc3n(C)c2=O)CCN(S(C)(=O)=O)C1` (stereo partly drawn) [Example 32-6], for which the IC50 turned out to be 39.1 nM. Same read-out and setting: next, `COC1(c2cc3c(N[C@H](C)c4cccc(C(F)F)c4F)ncnc3n(C)c2=O)CN(C(C)=O)C1` [Example 32-7]: 71.4 nM. The same measure, in the same setting: next, `COC1(c2cc3c(N[C@H](C)c4cccc(C(F)F)c4F)ncnc3n(C)c2=O)CN(C)C1` [Example 32-8]: 186 nM; `COC1(c2cc3c(N[C@H](C)c4cccc(C(F)F)c4F)ncnc3n(C)c2=O)CCN(C(C)=O)C1` (stereo partly drawn) [Example 32-9]: 16.3 nM. Regarding `COC1(c2cc3c(N[C@H](C)c4cccc(C(F)F)c4F)ncnc3n(C)c2=O)CN(S(C)(=O)=O)C1` [Example 32-10], the IC50 is 436 nM. In the case of `COC1(c2cc3c(N[C@H](C)c4cccc(C(F)F)c4F)ncnc3n(C)c2=O)CCN(C(=O)C2CC2)CC1` [Example 32-11], the IC50 is 34.5 nM. Turning to `COC1(c2cc3c(N[C@H](C)c4cccc(C(F)F)c4F)ncnc3n(C)c2=O)CCN(C(=O)C2COC2)CC1` [Example 32-12], the IC50 came to 28.6 nM. As to `COCC(=O)N1CCC(OC)(c2cc3c(N[C@H](C)c4cccc(C(F)F)c4F)ncnc3n(C)c2=O)CC1` [Example 32-13], the IC50 stood at 44 nM. Still for that read-out and setting: next, `COC1(c2cc3c(N[C@H](C)c4cccc(C(F)F)c4F)ncnc3n(C)c2=O)C[C@H]2C[C@@H]1CN2C(C)=O` (stereo partly drawn) [Example 32-14]: 1310 nM.

Still in this assay, the particulars now being: Homo sapiens, PC-9, 1 h, read-out: SOS1 pERK IC50.
For the compound `C[C@@H](Nc1ncnc2c1cc(C1(O)CCN(C)CC1)c(=O)n2C)c1cccc(C(F)F)c1F` [Example 28-1], the 50% inhibitory concentration (IC50) worked out at 187 nM. With `Cc1nc(N[C@H](C)c2cccc(C(F)F)c2F)c2cc(C3(O)CCN(C)CC3)c(=O)n(C)c2n1` [Example 28-2], the half-inhibitory concentration (IC50) worked out at 572 nM. Still for that read-out and setting: in the case of `C[C@@H](Nc1ncnc2c1cc(C1(N)CCC3(CC1)CS(=O)(=O)C3)c(=O)n2C)c1cccc(C(F)F)c1F` [Example 31-5] it was 26.7 nM; in that of `COC1(c2cc3c(N[C@H](C)c4cccc(C(F)F)c4F)ncnc3n(C)c2=O)CCN(C)CC1` [Example 32-3], 2240 nM.

Still in this assay, the particulars now being: PC-9 cells (EGFR Ex19Del), 1 hour incubation, AlphaLISA SureFire Ultra p-ERK1/2; read-out: SOS1 pERK IC50.
On to `C[C@@H](Nc1ncnc2c1cc(C1(F)CCP(C)(=O)CC1)c(=O)n2C)c1cccc(C(F)F)c1F` (stereo partly drawn) [Example 29-10], for which the IC50 is 140 nM. The same measure, in the same setting: in the case of `C[C@@H](Nc1ncnc2c1cc(C1(F)CCS(=O)(=O)C1)c(=O)n2C)c1cccc(C(F)F)c1F` (stereo partly drawn) [Example 29-12] it was 53.6 nM; in that of `C[C@@H](Nc1ncnc2c1cc(C1(F)CCS(=N)(=O)CC1)c(=O)n2C)c1cccc(C(F)F)c1F` (stereo partly drawn) [Example 29-15], 42.2 nM.

Consider `C[C@@H](Nc1ncnc2c1cc(C1(N)CCP(C)(=O)CC1)c(=O)n2C)c1cccc(C(F)F)c1F` (stereo partly drawn) [Example 31-10], for which the IC50 was 51.8 nM. Turning to `C[C@@H](Nc1ncnc2c1cc(C1(N)CCP(C)(=O)CC1)c(=O)n2C)c1cccc(C(F)F)c1F` (stereo partly drawn) [Example 31-11], the IC50 is 575 nM.
